Reference: patent publication EP4111863A1, “PHOSPHORUS USE EFFICIENCY ENHANCERS AS PLANT GROWTH PROMOTORS” (EuroChem Antwerpen, priority 2021, dated 2023)

System: SPX1
Assay: Chemical activity assessment: SPX1 phosphate starvation biomarker, pSPX1::GUS reporter line, GUS stained area
Type: in vivo, Arabidopsis thaliana
Conditions: Table 3; 50 µM compound, low phosphate modMS liquid medium, 7 days after germination; low phosphate control average of the same plate
Procedure: All Arabidopsis plant experiments were performed using the Arabidopsis thaliana Columbia-0 background. The Arabidopsis pSPX1::GUS line is described in the […] 2008, 54: 965-975. For rice, the cultivar Nipponbare was used. For maize, the cultivars DKC 2931 and B104 were used for regular pot experiments and sand-based pot experiments, respectively. For soybean, the cultivar Primus was used. […] The medium was solidified due to the addition of 0,6% Gelrite, unless stated otherwise. In case of vertical plates (root length and root hair measurements), the medium was supplied with 0.5% of sucrose and 1 µM (low phosphate, 1 µM KH2PO4, 9.9 mM KCI), 10 µM (low phosphate 10 µM KH2PO4, 9.9 mM KCI) or 1.25 mM KH2PO4 (high phosphate). Arabidopsis seeds were stratified for 2 days at 4 °C before germination. Seedlings were germinated in climate-controlled growth chambers at 22 °C under continuous light (100 µmol m^-2 s^-1). Husked rice seeds were germinated on wetted Whatman paper for 2 days at 37 °C and then transferred to Sterivent boxes or square Petri dishes with solid medium. Maize and soybean seeds were wetted 24 hours at room temperature prior to sowing in pots.
For the chemical activity assessment 3 to 8 seeds per well of Arabidopsis pSPX1::GUS line were sown in 96-well plates containing 150 µl of low phosphate modMS liquid medium containing 1% of sucrose. Compounds were added in 50 µM concentration, starting from a 5 mM stock of compounds solved in DMSO. Different chemical substances were separately added to different wells. Per plate, 16 control wells were used, 8 containing only the low phosphate medium and 1% DMSO, and 8 containing high phosphate medium and 1% DMSO. 7 days after germination, plates were scanned using a flatbed scanner (EPSON Expression 11000XL) and analyzed for leaf size. After scanning, the growth medium was replaced by GUS staining solution (see Plant Mol. Biol. Rep. 1994, 12: 37-42 for details) and incubated for 1.5 hours at 37 °C. The plates were scanned a second time and analyzed for GUS signal area. Measurements of both leaf area and GUS signal area were conducted by filtering out and measure the green and blue signal, respectively using ImageJ software. If the green leaf area was 50% or less than the control, samples were omitted. Additionally, all results were visually screened for leaf size and GUS signal.

Row | SMILES | GUS (SPX1) stained area normalized to the number of seeds (pixels)
1 | NC(=O)C1CN(c2ncc(Br)cn2)CCO1 (centres unmarked) | 17
2 | C=CCCN1CC(C(=O)OC)O[C@H](C)C1 (some centres unmarked) | 5
3 | Fc1ccc(C2CN(Cc3nnsc3Cl)CCO2)cc1 (centres unmarked) | 3
4 | CCc1ccnc(C(=O)Nc2cnccc2N2CCOCC2)c1 | 27
5 | CC1CN(C(=O)c2csc(-c3ccsc3)n2)C(C)CO1 (centres unmarked) | 46
6 | CC(C)c1nc(C2COCCN2c2ccnc(-c3ccccc3)n2)no1 (centres unmarked) | 21
7 | O=C1CCCCCN1CCCNC(=O)N1CCOC2(CCCCCC2)C1 | 40
8 | CCc1nnsc1C(=O)NCc1ccccc1N1CCOCC1 | 13
9 | CN(C)c1nc(CN2CCOCC2CC(=O)c2ccco2)ns1 (centres unmarked) | 330
10 | CN(CC1COc2ccccc2O1)c1ccc(S(=O)(=O)N2CCOCC2)cn1 (centres unmarked) | 0
11 | O=C(CCc1ccccc1)Nc1c(C(=O)N2CCOCC2)oc2ccccc12 | 28
12 | CN1CCOC(C(=O)N2CCN(CC3CC3)c3ccccc32)C1 (centres unmarked) | 64
13 | Cc1cnc(CN2CCOCC23CCCC3)o1 | 46
14 | O=S(=O)(c1cccc(-c2nnc(SCc3ccccc3)o2)c1)N1CCOCC1 | 43
15 | CC1(C)CN(c2snc(Cl)c2C#N)CCO1 | 0
16 | Brc1cc(CN2CCOC(Cn3cccn3)C2)cs1 (centres unmarked) | 21
17 | CC(C)Cn1c(SCC(=O)c2ccc(Br)s2)nnc1N1CCOCC1 | 9
18 | CC1CN(C(C)c2nc(C3CC3)no2)CCO1 (centres unmarked) | 441
19 | CCC1CN(Cn2nc3ccccn3c2=S)CCO1 (centres unmarked) | 3

Row | SMILES | GUS (SPX1) stained area normalized to the number of seeds (pixels)
20 | CCC(=O)c1ccc(OC(=O)N2CCOCC2)cc1 | 0
21 | O=C(COc1ccc(Cl)cc1)Nc1ccccc1C(=O)N1CCOCC1 | 20
22 | CN1CCOC(C(=O)NC(c2c(F)cccc2F)C(F)(F)F)C1 (centres unmarked) | 5
23 | CC1CN(Cn2nc(-c3cccs3)nc2S)C(C)CO1 (centres unmarked) | 9
24 | CC1(C)CN(C(=O)c2csc(-c3cccs3)n2)CCO1 | 6
25 | CS(=O)(=O)CC1(CN2CCOC(c3ccc(F)cc3)C2)CC1 (centres unmarked) | 0
26 | Cc1cnc(CN2CCOC(c3ccc(C(F)(F)F)cc3)C2)o1 (centres unmarked) | 46
27 | CC1CN(CC(=O)Nc2ccccc2C(=O)NC2CCCC2)CC(C)O1 (centres unmarked) | 21
28 | CCC1CN(C(=O)C(C)OCC2CC2)CC1N1CCOCC1 (centres unmarked) | 62
29 | COCC1CN(C(=O)NCCc2c[nH]c3ccc(F)cc23)CCO1 (centres unmarked) | 13
30 | c1ccc2sc(CN3CCOC(c4nccs4)C3)nc2c1 (centres unmarked) | 49
31 | O=C(O)c1cc(Cl)nc(N2CCOCC2)c1 | 0
32 | CCc1nsc(N2CCOC(C)C2)n1 (centres unmarked) | 44
33 | Cc1ccc(C(CN2CCOCC2)NC(=O)c2cc(-c3ccccc3)[nH]n2)cc1 (centres unmarked) | 0
34 | COc1ccc(OC)c2c1CN(c1nc(CN3CCOCC3)nc3sc(C)c(C)c13)CC2O (centres unmarked) | 42
35 | Cc1cc(C)c(C)c(OC(=O)N2CCOCC2)c1 | 17
36 | O=S(=O)(c1ccc(Sc2nnc(-c3ccncc3)[nH]2)nc1)N1CCOCC1 | 6
37 | CC1(C)CN(C(=O)c2csc(-c3ccsc3)n2)CCO1 | 31
38 | CC1CN(Cc2nc(-c3ccc(Br)s3)no2)CCO1 (centres unmarked) | 1
